Assay results as given in ChEMBL document CHEMBL2021919, “Computational analysis of structure-based interactions and ligand properties can predict efflux effects on antibiotics” (2012).
Values after ≈ are worked out from the molar mass of the structure shown.

Assays:
Salmonella typhimurium = assay: Ratio of MIC for wild type Salmonella typhimurium SH5014 to MIC for Salmonella typhimurium SH7616 harboring missense mutation in acrA/acrB gene by two-fold serial dilution method; format: functional, Salmonella enterica subsp. enterica serovar Typhimurium
Escherichia coli [1] = assay: Antimicrobial activity against wild type Escherichia coli expressing AcrAB-TolC efflux pump; format: functional
Escherichia coli [2] = assay: Ratio of MIC for wild type Escherichia coli TG1 to MIC for acrB-deficient Escherichia coli KAM3 by two-fold serial dilution method; format: functional
Escherichia coli [3] = assay: Ratio of MIC for wild type Escherichia coli JC7623 to MIC for acrAB-deficient Escherichia coli JZM120; format: functional
Escherichia coli [4] = assay: Ratio of MIC for wild type Escherichia coli HS414 to MIC for acrB-deficient Escherichia coli HS832 by agar dilution method; format: functional
Escherichia coli [5] = assay: Ratio of MIC for wild type Escherichia coli ECM1194 to MIC for acrAB-deficient Escherichia coli ECM1694; format: functional

Compound	Ratio (Salmonella typhimurium)	MIC (Escherichia coli [1])	Ratio (Escherichia coli [2])	Ratio (Escherichia coli [3])	Ratio (Escherichia coli [4])	Ratio (Escherichia coli [5])
CO[C@@]1(NC(=O)CSCC#N)C(=O)N2C(C(=O)O)=C(CSc3nnnn3C)CS[C@@H]21 [CEFMETAZOLE]	1	0.05 µg/mL (≈ 0.106 µM)	2	1	–	–
NC(=O)c1cc[n+](CC2=C(C(=O)[O-])N3C(=O)[C@@H](NC(=O)[C@@H](c4ccccc4)S(=O)(=O)O)[C@H]3SC2)cc1 [CEFSULODIN]	1	16 µg/mL (≈ 30 µM)	–	1	–	–
CC(C)(O/N=C(\C(=O)N[C@@H]1C(=O)N2C(C(=O)[O-])=C(C[n+]3ccccc3)CS[C@H]12)c1csc(N)n1)C(=O)O [CEFTAZIDIME]	–	0.12 µg/mL (≈ 0.22 µM)	–	1	–	–
O=C(Cc1cccs1)N[C@@H]1C(=O)N2C(C(=O)[O-])=C(C[n+]3ccccc3)CS[C@H]12 [CEPHALORIDINE]	2	2 µg/mL (≈ 4.81 µM)	–	2	–	–
C[n+]1c2cc(N)ccc2cc2ccc(N)cc21.[Cl-] [EUFLAVINE]	–	400 µg/mL	–	–	128	–
CC1(C)S[C@@H]2[C@H](NC(=O)[C@H](NC(=O)N3CCNC3=O)c3ccccc3)C(=O)N2[C@H]1C(=O)O [AZLOCILLIN]	–	16 µg/mL (≈ 34.7 µM)	–	4	–	–
CC(=O)NS(=O)(=O)c1ccc(N)cc1 [SULFACETAMIDE]	–	2000 µg/mL (≈ 9340 µM)	–	–	1	–
CC1(C)S[C@@H]2[C@H](NC(=O)Cc3ccccc3)C(=O)N2[C@H]1C(=O)O [PENICILLIN G]	32	8 µg/mL (≈ 23.9 µM)	–	2	–	–
CC1(C)S[C@@H]2[C@H](NC(=O)CCC[C@@H](N)C(=O)O)C(=O)N2[C@H]1C(=O)O [ADICILLIN]	1	8 µg/mL (≈ 22.3 µM)	–	–	–	–
CO/N=C(\C(=O)N[C@@H]1C(=O)N2C(C(=O)[O-])=C(C[n+]3cccc4c3CCC4)CS[C@H]12)c1csc(N)n1 [CEFPIROME]	–	0.015 µg/mL (≈ 0.0291 µM)	–	1	–	–
CC1(C)S[C@@H]2[C@H](NC(=O)[C@H](N)c3ccc(O)cc3)C(=O)N2[C@H]1C(=O)O [AMOXICILLIN]	–	4 µg/mL (≈ 10.9 µM)	–	1	–	–
CC[n+]1c(-c2ccccc2)c2cc(N)ccc2c2ccc(N)cc21.[Br-] [HOMIDIUM BROMIDE]	–	800 µg/mL	–	–	256	–
CCOc1ccc2ccccc2c1C(=O)N[C@@H]1C(=O)N2[C@@H]1SC(C)(C)[C@@H]2C(=O)O [NAFCILLIN]	–	200 µg/mL (≈ 483 µM)	128	–	–	–
Cc1onc(-c2ccccc2Cl)c1C(=O)N[C@@H]1C(=O)N2[C@@H]1SC(C)(C)[C@@H]2C(=O)O [CLOXACILLIN]	256	256 µg/mL (≈ 587 µM)	128	128	–	–
Nc1ccc2cc3ccc(N)cc3nc2c1 [PROFLAVINE]	–	100 µg/mL (≈ 478 µM)	–	–	8	–
Cn1nnnc1SCC1=C(C(=O)O)N2C(=O)[C@@H](NC(=O)[C@H](O)c3ccccc3)[C@H]2SC1 [CEFAMANDOLE]	–	4 µg/mL (≈ 8.65 µM)	4	4	–	–
Cc1onc(-c2ccccc2)c1C(=O)N[C@@H]1C(=O)N2[C@@H]1SC(C)(C)[C@@H]2C(=O)O [OXACILLIN]	–	1020 µg/mL (≈ 2550 µM)	256	512	–	–
CCN1CCN(C(=O)N[C@@H](C(=O)N[C@@H]2C(=O)N3[C@@H]2SC(C)(C)[C@@H]3C(=O)O)c2ccccc2)C(=O)C1=O [PIPERACILLIN]	–	4 µg/mL (≈ 7.73 µM)	–	–	–	–
CC(=O)OCC1=C(C(=O)O)N2C(=O)[C@@H](NC(=O)CCC[C@@H](N)C(=O)O)[C@H]2SC1 [CEPHALOSPORIN C]	1	16 µg/mL (≈ 38.5 µM)	–	–	–	–
CCN1CCN(C(=O)N[C@@H](C(=O)N[C@@H]2C(=O)N3C(C(=O)O)=C(CSc4nnnn4C)CS[C@H]23)c2ccc(O)cc2)C(=O)C1=O [CEFOPERAZONE]	–	0.03 µg/mL (≈ 0.0465 µM)	–	2	–	–
CC1(C)S[C@@H]2[C@H](/N=C/N3CCCCCC3)C(=O)N2[C@H]1C(=O)O [AMDINOCILLIN]	–	0.5 µg/mL (≈ 1.54 µM)	–	2	–	–

Compound	Ratio (Salmonella typhimurium)	MIC (Escherichia coli [1])	Ratio (Escherichia coli [2])	Ratio (Escherichia coli [3])	Ratio (Escherichia coli [4])	Ratio (Escherichia coli [5])
CS(=O)(=O)c1ccc([C@@H](O)[C@@H](CF)NC(=O)C(Cl)Cl)cc1 [FLORFENICOL]	–	6.25 µg/mL (≈ 17.4 µM)	–	–	8	–
CO[C@@H]1[C@@H](OC(N)=O)[C@@H](O)[C@H](Oc2ccc3c(O)c(NC(=O)c4ccc(O)c(CC=C(C)C)c4)c(=O)oc3c2C)OC1(C)C [NOVOBIOCIN]	–	32 µg/mL (≈ 52.2 µM)	64	32	64	–
O=C(N[C@H](CO)[C@H](O)c1ccc([N+](=O)[O-])cc1)C(Cl)Cl [CHLORAMPHENICOL]	–	4 µg/mL (≈ 12.4 µM)	–	–	8	4
Cc1nnc(SCC2=C(C(=O)O)N3C(=O)[C@@H](NC(=O)Cn4cnnn4)[C@H]3SC2)s1 [CEFAZOLIN]	1	0.39 µg/mL (≈ 0.858 µM)	–	1	–	–
CO/N=C(\C(=O)N[C@@H]1C(=O)N2C(C(=O)O)=C(COC(C)=O)CS[C@H]12)c1csc(N)n1 [CEFOTAXIME]	4	0.12 µg/mL (≈ 0.263 µM)	2	–	–	–
CN(C)[C@@H]1C(O)=C(C(N)=O)C(=O)[C@@]2(O)C(O)=C3C(=O)c4c(O)cccc4[C@@](C)(O)[C@H]3C[C@@H]12 [TETRACYCLINE]	–	1.25 µg/mL (≈ 2.81 µM)	–	–	8	–
CCn1cc(C(=O)O)c(=O)c2cc(F)c(N3CCNCC3)cc21 [NORFLOXACIN]	–	0.004 µg/mL (≈ 0.0125 µM)	–	–	1	–
CO/N=C(\C(=O)N[C@@H]1C(=O)N2C(C(=O)[O-])=C(C[N+]3(C)CCCC3)CS[C@H]12)c1csc(N)n1	1	0.0075 µg/mL (≈ 0.0156 µM)	–	1	–	–
CC1(C)S[C@@H]2[C@H](NC(=O)C(C(=O)O)c3ccccc3)C(=O)N2[C@H]1C(=O)O (stereo partly specified) [CARBENICILLIN]	4	1.56 µg/mL (≈ 4.12 µM)	1	1	–	–
CO/N=C(\C(=O)N[C@@H]1C(=O)N2C(C(=O)O)=C(COC(N)=O)CS[C@H]12)c1ccco1 [CEFUROXIME]	–	1.56 µg/mL (≈ 3.68 µM)	8	16	–	–
CO/N=C(\C(=O)N[C@@H]1C(=O)N2C(C(=O)O)=C(CSc3nc(=O)c(O)nn3C)CS[C@H]12)c1csc(N)n1 [CEFTRIAXONE]	2	0.015 µg/mL (≈ 0.027 µM)	–	1	–	–
C[C@@H](O)[C@H]1C(=O)N2C(C(=O)O)=C([C@H]3CCCO3)S[C@H]12 [FAROPENEM]	–	0.39 µg/mL (≈ 1.37 µM)	4	–	–	–
CC1(C)S[C@@H]2[C@H](NC(=O)C(c3ccccc3)S(=O)(=O)O)C(=O)N2[C@H]1C(=O)O (stereo partly specified) [SULBENICILLIN]	4	8 µg/mL (≈ 19.3 µM)	1	–	–	–
CC(=O)OCC1=C(C(=O)O)N2C(=O)[C@@H](NC(=O)Cc3cccs3)[C@H]2SC1 [CEPHALOTHIN]	–	2 µg/mL (≈ 5.04 µM)	–	–	–	–
CCn1cc(C(=O)O)c(=O)c2ccc(C)nc21 [NALIDIXIC ACID]	–	3.12 µg/mL (≈ 13.5 µM)	–	–	2	–
C[C@H]1[C@H](NC(=O)/C(=N\OC(C)(C)C(=O)O)c2csc(N)n2)C(=O)N1S(=O)(=O)O [AZTREONAM]	–	0.05 µg/mL (≈ 0.115 µM)	1	–	–	–
CC1(C)S[C@@H]2[C@H](NC(=O)[C@H](NC(=O)N3CCN(S(C)(=O)=O)C3=O)c3ccccc3)C(=O)N2[C@H]1C(=O)O [MEZLOCILLIN]	–	1 µg/mL (≈ 1.85 µM)	–	32	–	–
CO[C@@]1(NC(=O)Cc2cccs2)C(=O)N2C(C(=O)O)=C(COC(N)=O)CS[C@@H]21 [CEFOXITIN]	4	4 µg/mL (≈ 9.36 µM)	–	4	–	–
CN(Cc1cnc2nc(N)nc(N)c2n1)c1ccc(C(=O)N[C@@H](CCC(=O)O)C(=O)O)cc1 [METHOTREXATE]	–	640 µg/mL (≈ 1410 µM)	–	–	8	–
CO[C@@]1(NC(=O)C(C(=O)[O-])c2ccc(O)cc2)C(=O)N2C(C(=O)[O-])=C(CSc3nnnn3C)CO[C@@H]21.[Na+].[Na+] (stereo partly specified) [MOXALACTAM DISODIUM]	1	0.12 µg/mL	–	–	–	–
